Source: patent publication US20220025331A1, “METHODS AND SYSTEMS FOR IMPROVING CELLS FOR USE IN THERAPY” (priority 2017, published 2022)
One block for each molecule: values may come before it.

Columns and labels:
P3 and P3R foACs = test: Chondrocyte F-actin visualization (phalloidin staining); format: cell-based, sheep
Experimental: Chondrocyte Actin Visualization: In Phase 2, to visualize the effects of cytochalasin D treatment on cytoskeletal-mediated chondrogenic redifferentiation, F-actin staining was performed on untreated P0 foACs and both cytochalasin D treated and untreated P3 and P3R foACs. Approximately 8×10^3 cells/cm^2 were allowed to attach to glass slides for 1 hour in the presence of 2% FBS. Non-adherent cells were washed away with two exchanges of PBS, followed by the fixation of attached cells in 3.9% formaldehyde in PBS for 10 minutes. After another two washes with PBS, fixed cells were permeabilized with 0.1% Triton-X 100 (Sigma) in PBS for 5 minutes. Following two washes with PBS, cells were stained with CF594-conjugated phalloidin (Biotium; 1200 dilution in PBS) for 30 minutes. Excess stain was washed away with two exchanges of PBS and the cells were counterstained with DAPI-containing Vectashield (Vector Laboratories) and coverslipped for visualization using a Texas Red fluorescent channel.

[1] = test system: adult human costal chondrocytes (ahCCs); test: Cyto D treatment of self-assembled neocartilage from human costal chondrocytes (FIG. 18); format: cell-based; conditions: ahCCs P3 rejuvenated, 2 million cells, 2 μM at day 0-2
Experimental: Control constructs were untreated. Constructs treated with cytochalasin D (Cyto D) were treated with 2 μM at day 0-2. […] This example clearly illustrates that it is not obvious that a treatment that is beneficial for cells from one species will be beneficial when applied to cells from another species.

P3R foAC neocartilage [2] = test: Phase 2: cytochalasin D and hyaluronidase treatment of P3R (passaged, redifferentiated) neocartilage; format: cell-based, sheep; conditions: for neocartilage thickness / neocartilage wet weight / construct diameter: P3R Opt; for construct diameter: Cyto D 2 μM first 48 hours, Hya 200 units/mL at seeding
Experimental: (§1) Chondrocyte Isolation: Fetal ovine articular chondrocytes (foACs) were harvested from the patellofemoral surfaces of 120-day gestation Dorper cross sheep obtained as medical waste (UC Davis School of Veterinary Medicine). Cartilage from the whole surface of both condyles and the trochlear groove was minced into approximately 1 mm^3 pieces, then washed and centrifuged (500 G for 5 minutes) three times with Dulbecco's Modified Eagle Medium containing 4.5 g/L glucose and GlutaMAX (DMEM; Gibco) and 2% (v/v) penicillin/streptomycin/fungizone (PSF; Lonza). The tissue was digested in 0.2% (w/v) collagenase type II (Worthington) in DMEM containing 3% (v/v) fetal bovine serum (FBS; Atlanta Biologicals) for 18 hours at 37° C. with gentle rocking. After digestion, the resultant cell solutions were filtered through 70 μm cell strainers. For Studies 1-3, foACs were washed with ACK buffer (154.4 mM ammonium chloride (Sigma), 10 mM potassium bicarbonate (Fisher Scientific), 50 mM EDTA tetrasodium salt (Acros Organics) in ultrapure water for three minutes as previously described. These primary (P0) foACs were then frozen in DMEM with 20% (v/v) DMSO (Sigma) and 10% (v/v) FBS.
(§2) Chondrocyte Expansion and Redifferentiation: Previously frozen P0 foACs were seeded in T-225 flasks at 1.5×10^4 cells/cm^2 and expanded in chemically defined chondrogenic medium (CHG medium) (DMEM containing 1% PSF, 1% ITS+ premix (BD Biosciences), 1% non-essential amino acids (Gibco), 100 nM dexamethasone (Sigma), 50 mg/mL ascorbate-2-phosphate (Sigma), 40 g/mL L-proline (Sigma), and […] sodium pyruvate (Sigma)) with 2% FBS and chondrogenically tuned TFP supplementation (1 ng/mL TGF-μ1, 5 ng/mL bFGF, 10 ng/mL PDGF; al from PeproTech). Media was exchanged every 2-3 days. At confluence, cells were lifted with 0.5% Trypsin-EDTA (Gibco) for 5 minutes followed by digestion of the cell layers with DMEM containing 0.2% collagenase type II and 2% FBS for approximately 1 hour at 37° C., triturating every 20 minutes. The resulting cell solution was filtered through a 70 μm cell strainer and reseeded into T-225 flasks to achieve three passages (P3). P3 foACs underwent aggregate redifferentiation (P3R) as previously described. Briefly, 750,000 cells/mL CHG medium containing TGB supplementation (10 ng/mL TGF-β1, 100 ng/mL GDF-5, 100 ng/mL BMP-2; al from PeproTech) were cultured in 100 mm×20 mm petri dishes coated with 1% (w/v) molecular biology grade agarose (Thermo Fisher Scientific) made with phosphate buffered saline (PBS; Sigma) to create a non-adherent environment. Aggregate cultures were maintained on an orbital shaker at 60 rpm for the first 3 days and remained static for the remainder of the 14-day redifferentiation period. Media was exchanged every 2-3 days. At the end of the culture period, aggregates were digested with 0.5% Trypsin-EDTA for 20 minutes, followed by 0.2% collagenase in DMEM with 2% FBS for approximately 2 hours at 37° C., triturating every 20 minutes. Following dissociation of the aggregates, cells were filtered through a 70 μm cell strainer and counted.
(§3) Neocartilage Construct Seeding and Culture: P0, P3, or P3R foACs were self-assembled into engineered neocartilage constructs in non-adherent agarose wells. A sterile stainless steel mold consisting of 5 mm diameter cylindrical posts was inserted into a 48-well plate, each well containing 1 mL molten 2% (w/v) agarose to create a single agarose well per plate well. After solidification of the agarose at room temperature, the mold was removed. Agarose wells were filled with CHG medium exchanged twice over the course of 5 days to ensure saturation of the agarose before seeding. For each phase, cells were seeded into 5 mm agarose wells in 100 μL CHG medium per well. In Phase 1, P0 or P3R foACs were each seeded at five densities: 2, 3, 4, 5, and 6 million cells per construct. In Phase 2, P3 and P3R foACs were seeded at 2 million cells per construct. In Phase 3, 2 million P3R foACs were seeded. […]

P3 foAC neocartilage = test: Phase 2: cytochalasin D and hyaluronidase treatment of P3 (passaged, not redifferentiated) neocartilage; format: cell-based, sheep; conditions: P3, 2 million cells/construct; for construct diameter: Cyto D 2 μM first 48 hours, Hya 200 units/mL at seeding
Experimental: as §1, §2, §3

P3R foAC neocartilage [3] = test: Phase 3: TCL treatment of cytochalasin D treated P3R Opt neocartilage; format: cell-based, sheep; conditions: Phase 3, P3R Opt, 2 million cells
Experimental: as §1
Chondrocyte Expansion and Redifferentiation: Previously frozen P0 foACs were seeded in T-225 flasks at 1.5×10^4 cells/cm^2 and expanded in chemically defined chondrogenic medium (CHG medium) (DMEM containing 1% PSF, 1% ITS+ premix (BD Biosciences), 1% non-essential amino acids (Gibco), 100 nM dexamethasone (Sigma), 50 mg/mL ascorbate-2-phosphate (Sigma), 40 g/mL L-proline (Sigma), and […] sodium pyruvate (Sigma)) with 2% FBS and chondrogenically tuned TFP supplementation (1 ng/mL TGF-μ1, 5 ng/mL bFGF, 10 ng/mL PDGF; al from PeproTech). Media was exchanged every 2-3 days. At confluence, cells were lifted with 0.5% Trypsin-EDTA (Gibco) for 5 minutes followed by digestion of the cell layers with DMEM containing 0.2% collagenase type II and 2% FBS for approximately 1 hour at 37° C., triturating every 20 minutes. […] Following dissociation of the aggregates, cells were filtered through a 70 μm cell strainer and counted. […]

[4] = P3R Opt neocartilage, over the untreated group
[5] = cytochalasin D treated P3R Opt neocartilage
[6] = foACs P3 rejuvenated, 2 million cells, 2 μM at day 0-2, FIG. 18

Molecule: C=C1[C@@H](C)[C@H]2[C@H](Cc3ccccc3)NC(=O)[C@]23[C@H](OC(C)=O)/C=C/[C@@](C)(O)C(=O)[C@@H](C)C/C=C/[C@H]3[C@@H]1O [cytochalasin D]
- actin arrangement (P3 and P3R foACs; P3R chondrocytes): localized more of the actin cortically than in untreated P3R cells
- cell shape and actin arrangement (P3 and P3R foACs; P3 chondrocytes): induced a rounded cell shape
- aggregate modulus [1]: significantly decreased
- shear modulus [1]: significantly decreased
- increase of aggregate modulus over the P0 control (P3R foAC neocartilage [2]; ACK treated P3R cells, 2 million cells/construct, vs untreated P0 control): 9.6 fold
- neocartilage aggregate modulus (P3R foAC neocartilage [2]; ACK treated P3R chondrocytes seeded at 2 million cells/construct): 400 kPa
- increase in compressive stiffness (aggregate modulus) (P3R foAC neocartilage [2]; [4]): 0.9 fold
- increase in tensile stiffness (P3R foAC neocartilage [2]; [4]): 1.0 fold
- increase in tensile strength (P3R foAC neocartilage [2]; [4]): 2.7 fold
- neocartilage thickness (P3R foAC neocartilage [2]; 2 million cells/construct): 0.7±0.1 mm
- neocartilage wet weight (P3R foAC neocartilage [2]; 2 million cells/construct): 28.1 ± 2.6 mg
- construct diameter (P3R foAC neocartilage [2]; 2 million cells/construct): 6.5±0.2 mm
- GAG/wet weight (P3R foAC neocartilage [2]; P3R neocartilage, FIG. 8C): increased
- functionality index (FI) with respect to native fetal cartilage (P3R foAC neocartilage [2]; [5]): 1.1
- functionality index (FI) with respect to native juvenile cartilage (P3R foAC neocartilage [2]; [5]): 0.83
- compressive aggregate modulus (P3R foAC neocartilage [2]; [6]): significantly increased
- shear modulus (P3R foAC neocartilage [2]; [6]): significantly increased
- neocartilage thickness (P3 foAC neocartilage): 0.4±0.1 mm
- neocartilage wet weight (P3 foAC neocartilage): 8.4 ± 1.0 mg
- construct diameter (P3 foAC neocartilage): 3.7±0.2 mm
- neocartilage diameter (P3R foAC neocartilage [3]): 6.5±0.4 mm
- neocartilage thickness (P3R foAC neocartilage [3]): 0.8±0.2 mm
- neocartilage wet weight (P3R foAC neocartilage [3]): 87.1 ± 3.6 mg

- neocartilage thickness (P3R foAC neocartilage [2]; 2 million cells/construct): 0.8±0.2 mm
- neocartilage wet weight (P3R foAC neocartilage [2]; 2 million cells/construct): 23.9 ± 1.4 mg
- construct diameter (P3R foAC neocartilage [2]; 2 million cells/construct): 5.9±0.0 mm
- neocartilage thickness (P3 foAC neocartilage): 2.0±0.2 mm
- neocartilage wet weight (P3 foAC neocartilage): 6.7 ± 0.4 mg
- construct diameter (P3 foAC neocartilage): 2.6±0.1 mm
Molecule: hyaluronidase
